In patent US12428370B2, “Haloallylamine dual amine oxidase inhibitors” (Syntara Limited, priority 2020, dated 2025):
Structures can show the parent of a compound that is named as a salt.

Columns and labels:
[1] = system: mdx mice (C57BL/10ScSn-Dmdmdx/J); assay: Mouse model of Duchenne muscular dystrophy, PXS-5131; assay type: in vivo; conditions: 6 mg/kg/day oral, 4 weeks, 3 months old mdx mice
Protocol: mdx mice (C57BL/10ScSn-Dmdmdx/J) were obtained from Jackson Laboratories, Maine, US. […] Untreated, age-matched animals were used as controls. The drug was administered using small palatable gelatin pellets prepared with 10% gelatin in 20% sucralose plus food flavoring (Zhang L. Protoc. Exch. 2011, 236) Animals were pre-conditioned to recognize and eat the gelatins with a three-day routine involving overnight fasting followed by exposure of each single animal to the gelatin without the active principle, in the absence of other food. Palatability was further improved by dipping the pellets in corn oil containing trace amounts of almond oil and then breading them with pulverized food pellet.
Muscle function in vivo was assessed for the gastrocnemius muscle, as described by Blaauw B. et al., Hum. Mol. Genet. 2008, 17, 3686-3696. Mice were anesthetized, and electrodes were placed on either side of the sciatic nerve, while the common peroneal nerve was cut. Muscle torque production was measured using a lever system (Aurora Scientific 305B). A lever arm of 2.1 mm was used for all groups, as no major differences in body weight between various groups was observed. Eccentric contractions were performed by moving the foot backward at a velocity of 40 mm/s while the gastrocnemius was stimulated with a frequency sufficient to induce full tetanic fusion (100 Hz). Contractions were repeated once every 20 s to avoid inducing fatigue (see FIG. 6).
After the force measurements described above, animals were sacrificed by cervical dislocation and the skeletal muscle and the heart (minus the atria) were collected, flash-frozen in isopentane pre-cooled with liquid nitrogen and stored at −80° C. 12 μm sections from a limb muscle (tibialis anterior) were prepared with a cryotome; multiple serial slides were prepared, containing sections from at least three different levels. The same procedure was used to prepare heart transverse sections.
The amount of the neutrophil and macrophage infiltration was determined in serial sections of skeletal muscle prepared as described above, which were fixed and then stained via immunofluorescence with an anti Ly6G and an anti F4/80 antibody (AbCam, ab25377 and ab6640, for neutrophils and macrophages, respectively). The amount of infiltrate was assessed as percentage of fluorophore-positive pixel over the total area of the sections, using Image-J software (FIGS. 7A and B).
The amount of reactive oxygen species (ROS) present in the skeletal muscle tissue sections was assessed using dihydroethidium (DHE, Sigma) as a fluorescent probe in freshly cut tissue sections as described by Menazza et al., et al., Hum. Mol. Genet. 2010, 19, 4207-4215. In the presence of ROS, DHE is oxidized forming ethidium, which then can bind to nuclear DNA and emit red fluorescence. The amount of the red fluorescence was then measured from at least 20 random fields per each section using the Metafluor software (Leica), and data were averaged per field (FIG. 7C).
The percentage of fibrotic tissue in skeletal muscle was determined by picrosirius red staining. […] Whole images of at least three sections per muscle sample were then acquired with a bright field microscope and then analyzed with Image-J software, in order to measure the percentage of fibrotic (red) areas with respect to the total surface (FIG. 7D).

[2] = target: T1, Rat Adipose Tissue SSAO/VAP-1 (Rattus norvegicus, UniProt O08590); assay: Rat adipose tissue SSAO/VAP-1 activity after oral administration; assay type: in vivo, Sprague Dawley rats; conditions: single oral dose 0.6 mg/kg, Sprague Dawley rat adipose tissue, FIG. 2
T1 construct: Adipose tissue was homogenized in ice-cold HES buffer; from tissue; host or cells: gonadal fat of Sprague Dawley rats (homogenate supernatant)
T1 sequence (O08590 1-763): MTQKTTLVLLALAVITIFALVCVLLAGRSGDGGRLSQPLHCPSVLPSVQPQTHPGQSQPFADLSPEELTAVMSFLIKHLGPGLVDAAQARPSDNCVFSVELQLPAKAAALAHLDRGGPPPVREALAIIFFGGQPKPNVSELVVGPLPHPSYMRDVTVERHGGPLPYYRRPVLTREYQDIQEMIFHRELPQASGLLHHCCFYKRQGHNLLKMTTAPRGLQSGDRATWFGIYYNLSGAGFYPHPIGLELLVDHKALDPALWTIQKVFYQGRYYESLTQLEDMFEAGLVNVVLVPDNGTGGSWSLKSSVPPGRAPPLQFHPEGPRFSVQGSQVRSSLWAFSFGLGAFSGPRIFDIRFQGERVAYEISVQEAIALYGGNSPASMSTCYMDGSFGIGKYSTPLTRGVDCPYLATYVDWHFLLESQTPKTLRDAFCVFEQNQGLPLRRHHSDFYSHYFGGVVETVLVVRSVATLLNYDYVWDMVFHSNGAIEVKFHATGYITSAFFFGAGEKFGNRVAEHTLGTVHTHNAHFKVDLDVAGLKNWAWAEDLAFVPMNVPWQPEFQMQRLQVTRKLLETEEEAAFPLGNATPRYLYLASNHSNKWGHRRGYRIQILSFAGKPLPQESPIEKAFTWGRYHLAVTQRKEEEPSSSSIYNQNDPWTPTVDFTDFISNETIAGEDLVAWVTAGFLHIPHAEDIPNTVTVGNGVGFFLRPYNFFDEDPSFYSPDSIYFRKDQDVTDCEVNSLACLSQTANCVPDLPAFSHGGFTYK
Protocol: Sprague Dawley rats were orally administered the compound under study and sacrificed at various time points and gonadal fat and brain tissue collected.
Adipose tissue was homogenized in ice-cold HES buffer (20 mM HEPES, 1 mM EDTA, sucrose 250 mM, proteases and phosphatases inhibitor, pH 7.4). Homogenate was then centrifuged at 2000 rpm for 5 minutes at 4° C. and the resultant supernatant portion (minus the lipid top layer) used for assay. SSAO/VAP-1 activity was determined by using a non-specific MAO inhibitor (e.g. pargyline) to establish the high signal and a mixture of non-specific MAO inhibitor and an SSAO/VAP-1 inhibitor (e.g. semicarbazide) to determine the low signal.
Activity of the treated samples was analyzed using the fluorometric method described in EXAMPLE 9 for SSAO/VAP-1 activity and EXAMPLE 10 for MAO-B.

[3] = Metabolic stability profile (liver microsomes, hepatocytes, plasma, whole blood, simulated gastric fluid, metabolite identification); assay type: in vitro ADME; conditions: all assays: liver microsomes, plasma (human, rat, dog), simulated gastric fluid pH 1.2, metabolite identification
Protocol: Assessment of the metabolic stability profile of Compound 1 using standardized commercially available methods (available through contract research organizations such as Eurofins Panlabs Inc, (https://www.eurofinsdiscoveryservices.com/services/in-vitro-assays/) or Evotec SE, (https://www.evotec.com/en/execute/integrated-pre-clinical-development/adme)).
The potential for metabolism in vivo was evaluated in vitro using the following assays:
Liver microsomal stability (human, rat, dog; in presence of NADPH)
Hepatocyte stability (human, rat, dog)
Plasma stability (human, rat, dog)
Whole blood stability (human, rat)
Simulated gastric fluid stability (10 μM test article, pH 1.2)
Metabolite identification in human hepatocytes

| Compound | neutrophil influx in the tibialis anterior muscle ([1]; p<0.0001, FIG. 7A) | macrophage influx in the tibialis anterior muscle ([1]; p<0.0001, FIG. 7B) | reactive oxygen species in the tibialis anterior muscle ([1]; p<0.0001, FIG. 7C) | fibrosis (picrosirius red staining) in the tibialis anterior muscle ([1]; p<0.0001, FIG. 7D) | loss of force caused by eccentric contractions in the gastrocnemius muscle ([1]; p<0.05, FIG. 6) | duration of inhibition of SSAO/VAP-1 enzyme activity [2] | metabolic stability [3] |
| --- | --- | --- | --- | --- | --- | --- | --- |
| NC/C(=C\F)C1Cc2ccccc2O1 (single isomer, unassigned; (-)) [PXS-5131, (−)-(E)-2-(2,3-Dihydrobenzofuran-2-Yl)-3-Fluoroprop-2-En-1-Amine Hydrochloride] | significantly reduces | significantly reduces | significantly reduces | significantly reduces | helps protect against the loss of force | greater than 24 hours | – |
| N#Cc1ccc(OC/C(=C/F)CN)cc1 [Compound 1, (E)-4-((2-(aminomethyl)-3-fluoroallyl)oxy) benzonitrile] | – | – | – | – | – | – | favourable metabolic stability |
